IC50 data for two molecules are collected here from publication PMC8779152, “A “Double-Locked” and Enzyme/pH-Activated Theranostic Agent for Accurate Tumor Imaging and Therapy” (Molecules, 2022).

The target of this test is HDAC1 (Homo sapiens, UniProt Q13547). Kind of test: HDAC1 enzyme inhibition (assay details not given). The class given is biochemical.
Sequence of HDAC1 (Q13547 whole entry): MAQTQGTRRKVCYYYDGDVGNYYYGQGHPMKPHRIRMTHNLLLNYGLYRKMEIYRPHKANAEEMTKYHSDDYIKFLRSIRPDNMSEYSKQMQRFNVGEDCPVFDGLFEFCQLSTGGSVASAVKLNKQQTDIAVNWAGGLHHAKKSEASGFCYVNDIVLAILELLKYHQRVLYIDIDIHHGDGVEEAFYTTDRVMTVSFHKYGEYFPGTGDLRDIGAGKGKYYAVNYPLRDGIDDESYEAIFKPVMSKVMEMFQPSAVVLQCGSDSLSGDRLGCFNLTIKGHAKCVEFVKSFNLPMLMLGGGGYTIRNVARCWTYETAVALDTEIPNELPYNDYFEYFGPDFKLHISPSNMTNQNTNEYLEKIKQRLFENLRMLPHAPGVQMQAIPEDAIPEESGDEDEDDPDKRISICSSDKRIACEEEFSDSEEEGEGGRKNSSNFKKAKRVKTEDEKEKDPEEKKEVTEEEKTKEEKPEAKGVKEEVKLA

Broadly, the IC50 is the concentration needed to halve the response being measured. Low readings indicate greater potency in that assay, high ones weaker potency in that assay. `Nc1ccc(-c2nc(NCc3ccc(C(=O)NO)cc3)cc3c2[nH]c2ccccc23)cc1` [H6AQ] showed an IC50 of 41 ± 5 nM.
The result for `O=C(NO)c1ccc(CNc2cc3c([nH]c4ccccc43)c(-c3ccc([N+](=O)[O-])cc3)n2)cc1` [H6M] reads 65 ± 6 nM.
